# Target: PTEN (Homo sapiens, UniProt P60484)
# Test: absorbance […] nm, pNPP hydrolysis
# Type: biochemical
# Conditions: 100 mM pNPP; 25 °C; Tris-HCl pH 8.0
# Chain of PTEN (P60484 2-403): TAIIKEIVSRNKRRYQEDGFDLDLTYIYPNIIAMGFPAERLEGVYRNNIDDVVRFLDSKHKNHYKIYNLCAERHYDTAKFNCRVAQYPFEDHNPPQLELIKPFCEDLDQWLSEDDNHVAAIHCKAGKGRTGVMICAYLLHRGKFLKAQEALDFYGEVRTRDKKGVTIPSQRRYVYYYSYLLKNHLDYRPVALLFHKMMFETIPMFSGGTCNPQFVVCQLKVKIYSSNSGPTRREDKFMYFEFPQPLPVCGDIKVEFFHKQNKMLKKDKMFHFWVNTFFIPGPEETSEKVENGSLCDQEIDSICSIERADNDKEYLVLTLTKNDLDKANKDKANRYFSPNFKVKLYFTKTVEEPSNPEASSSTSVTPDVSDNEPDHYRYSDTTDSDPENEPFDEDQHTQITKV
compound,measurement,value
O=[N+]([O-])c1ccc(OP(=O)(O)O)cc1 [pNPP],"absorbance 405 nm, pNPP hydrolysis",in vitro activity and affinity for pNPP substrate are similar for both INPP4B and PTEN

# — PMC4578723 (Biochemical and biophysical research communications, 2013)
